Common to all, as to type: cell-based
Assay [1] concerns the target T1, BRS-3 (bombesin receptor subtype-3, BB3), human (Homo sapiens, UniProt P32247).
T1 construct: gene BRS3
T1 sequence (P32247 1-399): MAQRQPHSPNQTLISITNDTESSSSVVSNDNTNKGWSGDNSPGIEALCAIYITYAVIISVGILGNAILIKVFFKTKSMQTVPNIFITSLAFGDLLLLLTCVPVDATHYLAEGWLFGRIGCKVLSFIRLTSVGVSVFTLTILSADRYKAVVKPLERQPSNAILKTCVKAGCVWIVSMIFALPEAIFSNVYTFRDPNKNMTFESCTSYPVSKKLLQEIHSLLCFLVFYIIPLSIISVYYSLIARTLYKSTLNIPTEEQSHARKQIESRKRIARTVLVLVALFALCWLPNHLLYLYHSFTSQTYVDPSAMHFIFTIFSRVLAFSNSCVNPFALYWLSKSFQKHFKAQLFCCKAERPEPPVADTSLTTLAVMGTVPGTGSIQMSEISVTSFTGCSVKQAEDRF
Nature of the assay: inhibition of […] MK-5046-induced IP1 accumulation (HTRF) in H1299-hBRS-3 stable cells.

In assay [2] the target is T2, BRS-3 (bombesin receptor subtype-3, BB3), murine (Mus musculus, UniProt O54798).
T2 construct: gene Brs3
T2 sequence (O54798 1-399): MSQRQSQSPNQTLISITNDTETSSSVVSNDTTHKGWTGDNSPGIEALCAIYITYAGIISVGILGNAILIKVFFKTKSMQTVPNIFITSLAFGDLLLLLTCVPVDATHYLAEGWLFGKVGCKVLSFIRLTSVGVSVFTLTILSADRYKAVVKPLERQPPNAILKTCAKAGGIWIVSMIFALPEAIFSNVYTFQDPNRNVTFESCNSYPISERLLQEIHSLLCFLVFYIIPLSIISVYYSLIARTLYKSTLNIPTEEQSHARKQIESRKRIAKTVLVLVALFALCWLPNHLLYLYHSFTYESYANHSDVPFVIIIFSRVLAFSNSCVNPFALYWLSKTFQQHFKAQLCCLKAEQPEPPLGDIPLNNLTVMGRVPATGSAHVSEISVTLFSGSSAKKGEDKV
As to the kind of experiment: inhibition of […] MK-5046-induced Ca2+ mobilization (FLIPR) in HEK293-mBRS-3 stable cells; also DMR (IC50 […]).

The target of assay [3] is T2, BRS-3 (bombesin receptor subtype-3, BB3), murine. As to the kind of experiment: reference peptide antagonist; inhibition of […] MK-5046-induced Ca2+ mobilization (FLIPR) in HEK293-mBRS-3 stable cells.

As usually defined, the IC50 is the concentration that inhibits the measured activity by half. The low end stands for greater potency, the high end for weaker potency. Regarding `CC(C)=CCc1c(O)ccc(-c2coc3cc(O)cc(O)c3c2=O)c1O` [LIA, licoisoflavone A], the results for the 50% inhibitory concentration (IC50) in assay [1] and in assay [2] were 841 nM and 706 nM, respectively.
Compound Bantag-1 returned an IC50 in assay [3] of 2.32 nM.

The record behind these values is publication PMC11943355, “Identification of a Novel Antagonist of BRS-3 from Natural Products and Its Protective Effects Against H2O2-Induced Cardiomyocyte Injury” (International Journal of Molecular Sciences, 2025).
